Results reported in patent publication US11396643B2, “Compositions comprising bacterial strains and use thereof in controlling pathogenic microorganisms” (Better Air International Limited, priority 2018, dated 2022).

Columns and labels:
Assay in all cases: Agar well diffusion antifungal assay
Format in all cases: cell-based
Settings in all cases: PDA plates, 25° C. 72 h
[1] = test system: Alternaria alternata (Fries) Keissler (ATCC MYA-4642)
Method: (§1) Brain Heart Infusion (BHI) Agar was used for the antagonism against pathogenic microorganisms while the Potato Dextrose Agar (PDA) was used for evaluation against molds. […] Molds were prepared using PDA at 25° C. with 85% HR for 7 days. […] The same amount of mold spore suspension was inoculated on PDA.

[2] = test system: Penicillium chrysogenum Thom (ATCC MYA-4644)
Method: as §1

[3] = test system: Cladosporium sphaerospermum Penzig (ATCC MYA-4645)
Method: as §1

Question: OO [Hydrogen peroxide 10%, Hydrogen peroxide] was tested. Which “Inhibition zone, Alternaria alternata (Fries) Keissler (ATCC MYA-4642)” value [1] did it give?
Answer: 8 mm

Question: What about the “Inhibition zone, Penicillium chrysogenum Thom (ATCC MYA-4644)” value [2] of the same compound?
Answer: 10 mm

Question: And the “Inhibition zone, Cladosporium sphaerospermum Penzig (ATCC MYA-4645)” value [3]?
Answer: 12 mm
